# Assay: DSC miscibility screening of polymer-surfactant-ganaxolone combinations
# Format: physicochemical
# Conditions: added to all formulations
smiles,measurement,value
CCCC(CCC)C(=O)O [Valproic acid],Effect of addition on crystallinity of the ganaxolone,increased crystallinity

# Source: US20250032510A1, “AMORPHOUS SOLID DISPERSION GANAXOLONE FORMULATION” (MARINUS PHARMACEUTICALS, INC., priority 2021, published 2025)
